Data set [1] has as its system Mouse colon cancer Colon 26 cells. Description: In vivo antitumor effect on Colon 26. Conditions: i.v. 3 times at 4-day intervals, Day 11 after administration. As to the method:
Mouse colon cancer Colon 26 cells were transplanted subcutaneously in the back of female CDF1 mouse, and after the volume of the tumor reached about 100 mm^3, the micelle preparation of Example 4, or paclitaxel alone as the control drug, was administered via a mouse caudal vein into the mouse 3 times at 4-day intervals, to examine the effect thereof on advanced cancer. The micelle preparation had been diluted with 5% glucose solution to form a solution containing paclitaxel at a concentration of 3 mg/mL. Paclitaxel for use as the sole regimen was dissolved in ethanol and mixed with an equal volume of Cremophor (manufactured by Sigma) to prepare a solution containing paclitaxel at a concentration of 30 mg/mL, and the resulting preparation was diluted with physiological saline to 3 mg/mL just before administration. The antitumor effect of each drug was judged in percentage (T/C %) of the average tumor volume of the group which was given the drug on Day 11 after administration, relative to the average tumor volume of the group which was not given the drug. A lower numerical value is indicative of higher effect.

The nature of data set [2]: Paclitaxel levels in mouse tumor. Conditions: female, CDF1, mouse, tumor (Colon 26), intravenous, 50 mg/kg i.v., Colon 26 tumor. In kind it is in vivo. Here is the method: (§1) Each drug was prepared according to the same method as in Test Example 2 (in vivo antitumor effect on Colon 26). A micelle preparation containing paclitaxel, or paclitaxel alone, each at a dose level of 50 mg/kg, was administered via a mouse caudal vein into female CDF1 mouse transplanted with mouse colon cancer Colon 26 in the back, and after a predetermined time, whole blood was collected through an armpit artery. 0.01 mL of plasma obtained by centrifugation was deproteinized (3 times) with 0.2 mL of water and 1 mL of acetonitrile and then subjected to liquid/liquid extraction by adding 2 mL of t-butyl methyl ether. The organic layer was recovered, evaporated into dryness, dissolved in 0.4 mL of dissolving liquid for HPLC, and measured for its paclitaxel concentration by HPLC. Separately, the tumor was homogenized with 0.5% acetic acid to prepare 1% tumor homogenate, and 0.1 mL of 1% tumor homogenate was deproteinized (3 times) with 0.1 mL of water and 1 mL of acetonitrile and subjected to liquid/liquid extraction by adding 2 mL of t-butyl methyl ether. The organic layer was concentrated and dissolved in 0.4 mL of dissolving liquid for HPLC and measured for its paclitaxel concentration by HPLC.

Data set [3] is described as follows: Paclitaxel levels in mouse plasma. The format is in vivo. Particulars: female, intravenous, 50 mg/kg i.v., Colon 26-bearing CDF1 mice. As to the method: as §1
The test system of a further data set is female CDF1 mice. As to the kind of experiment: Observation of peripheral nerve damage to mice (stretch reflex). Particulars: 30 mg/kg in terms of paclitaxel, i.v. for 5 consecutive days, hind limb. The format is in vivo, mouse. As to the method:
The micelle preparation of the present invention, or paclitaxel alone, was administered via a mouse caudal vein to female CDF1 mice for 5 consecutive days, and the stretch reflex of the mouse hind limb was observed as an indicator of the peripheral nerve damage caused by paclitaxel. Each drug was prepared in the same manner as in Test Example 2 (in vivo antitumor effect on Colon 26). The dose was 30 mg/kg in terms of paclitaxel.

Take `CC(=O)O[C@H]1C(=O)[C@@]2(C)[C@H]([C@H](OC(=O)c3ccccc3)[C@]3(O)C[C@H](OC(=O)[C@H](O)[C@@H](NC(=O)c4ccccc4)c4ccccc4)C(C)=C1C3(C)C)[C@]1(OC(C)=O)CO[C@@H]1C[C@@H]2O` [Paclitaxel alone, paclitaxel]: the “T/C % (average tumor volume relative to group not given the drug)” value amounted to 81.6% in data set [1] (dose 50 mg/kg) and 52.6% in data set [1] (dose 100 mg/kg). Further, the concentration at 0.083 h in data set [2] (0.083 hours) came out at 7370 ng/mL; in data set [3] (0.083 hours) it was 59.3 µg/mL. The concentration at 0.5 h was 10000 ng/mL in data set [2] (0.5 hours) and 31900 ng/mL in data set [3] (0.5 hours). Besides, the concentration at 2 h in data set [2] (2 hours) turned out to be 12500 ng/mL; in data set [3] (2 hours), 14800 ng/mL. The concentration at 6 h in data set [2] (6 hours) came to 5790 ng/mL; in data set [3] (6 hours), 710 ng/mL. Moreover, the concentration at 24 h in data set [2] (24 hours) turned out to be 1250 ng/mL. In addition, the “Mice with loss of stretch reflex” value in the data set on female CDF1 mice is 3/3; with female CDF1 mice (listed as paclitaxel alone) it was “recognized to lose stretch reflex in every mouse”.

These data come from patent publication US9434822B2, “Block copolymer, micelle preparation, and anticancer agent containing the same as active ingredient” (Nippon Kayaku Kabushiki Kaisha, priority 2004, dated 2016).
